What is called Km is the substrate concentration at which the rate is half of its maximum.

The text below walks through data of patent US20020013295A1, “Naaladase inhibitors for treating amyotrophic lateral sclerosis” (priority 2000, published 2002).

Residues, ends and D or L forms follow the SMILES beside them.

One test addresses NAALADase (Rattus norvegicus, UniProt P70627). The following applies: NAAG as substrate of NAALADase; cited from earlier work.
In another test the test system is transgenic SOD mice. The test can be described thus: Effect of NAALADase inhibitor on onset of clinical disease, transgenic mice model of FALS. The test is classed as in vivo. The conditions noted are these: for Disease onset for compound treated mice: 50 mg/kg, from one month old. How it is done:
The effect of NAALADase inhibitors on the onset of ALS was tested using the transgenic mice model of familial amyotrophic lateral sclerosis (FALS), which is detailed in Gurney, M., Annals of Neurology (1996) 39:147-157, and otherwise well known in the art. One month old transgenic SOD mice were treated with daily intraperitoneal injections of a vehicle (50 mM HEPES-buffered saline) or a NAALADase inhibitor (50 mg/kg 2-[[(2,3,4,5,6-pentafluorobenzyl)hydroxyphosphinyl]methyl]-pentanedioic acid (“Compound A” )). Clinical symptoms of the mice were monitored daily. The onset of clinical disease was scored by examining each mouse for its shaking of limbs when suspended in the air by its tail, cross spread of spinal reflexes, hindlimb paralysis, body weight and wheel running activity.

NAALADase, sequence (P70627 whole entry): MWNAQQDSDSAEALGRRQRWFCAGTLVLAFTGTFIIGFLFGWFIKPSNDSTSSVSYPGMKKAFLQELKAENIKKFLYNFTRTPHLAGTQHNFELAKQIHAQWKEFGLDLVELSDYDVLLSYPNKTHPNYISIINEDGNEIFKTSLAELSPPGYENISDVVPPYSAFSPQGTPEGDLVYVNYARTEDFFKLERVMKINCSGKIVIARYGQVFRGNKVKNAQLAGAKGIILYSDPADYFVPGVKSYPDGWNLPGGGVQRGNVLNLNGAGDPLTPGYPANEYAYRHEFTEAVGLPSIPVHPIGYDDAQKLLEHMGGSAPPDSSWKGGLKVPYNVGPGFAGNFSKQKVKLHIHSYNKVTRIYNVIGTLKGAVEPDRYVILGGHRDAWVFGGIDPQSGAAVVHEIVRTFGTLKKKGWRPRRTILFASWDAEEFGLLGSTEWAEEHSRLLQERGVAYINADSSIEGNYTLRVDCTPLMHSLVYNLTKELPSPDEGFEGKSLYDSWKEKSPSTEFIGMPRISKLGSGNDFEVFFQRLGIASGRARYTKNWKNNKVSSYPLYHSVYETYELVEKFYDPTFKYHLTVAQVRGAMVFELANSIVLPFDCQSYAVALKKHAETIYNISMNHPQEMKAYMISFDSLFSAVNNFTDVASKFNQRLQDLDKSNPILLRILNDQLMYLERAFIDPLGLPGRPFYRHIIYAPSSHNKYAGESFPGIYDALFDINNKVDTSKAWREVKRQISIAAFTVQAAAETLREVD

With `CC(=O)N[C@@H](CC(=O)O)C(=O)N[C@@H](CCC(=O)O)C(=O)O` [NAAG, N-acetyl-aspartyl-glutamate] (Ac-Asp-Glu-OH), the Michaelis constant (Km) on NAALADase is 540 nM.

For `O=C(O)CCC(CCCS)C(=O)O` (centres unmarked) [Compound B, 2-(3-sulfanylpropyl)pentanedioic acid], the “Difference in disease onset, compound treated vs vehicle treated mice” value in the test with transgenic SOD mice (Study 1) is listed as 32; in the test with transgenic SOD mice (Study 2), 25. Also, the “Disease onset for compound treated mice” value with transgenic SOD mice (Study 1, daily intraperitoneal injections) is 221 days of age; in the test on transgenic SOD mice (Study 2, daily intraperitoneal injections), 166 days of age.
